Patent publication US20250368623A1, “PYRIDAZINONE-DERIVED COMPOUNDS FOR THE MODULATION OF MYC AND FOR MEDICAL USES” (GENETIC INTELLIGENCE, INC, priority 2022, published 2025)
Where two headings read alike, the source gives them in different places.

Key:
[1] = system: HepG2; assay: Mouse hollow fiber model, liver cancer (HepG2); type: in vivo; details: liver cancer HepG2 hollow fibers s.c. in mice; 50 mg/kg orally once daily for five days; modified MTT; vs Day 5 vehicle
Procedure: (§1) The in vivo efficacy of test compounds (e.g., 6-(2,4-dimethylthiazol-5-yl)-2-((1-(pyrido[2,3-d]pyrimidin-4-yl)piperidin-4-yl)methyl)pyridazin-3(2H)-one) on cancer cells is determined using the mouse hollow fiber model established at the National Cancer Institute (NCI). Triple negative breast cancer (TNBC) (MDA-MB-231), pancreatic cancer (Mia-PaCa-2), and liver cancer (HepG2) cells are added to differently colored hollow fibers (KrosoFlo@Implant membrane, Green: Lot No.: 20051617, Blue: Lot No.: 20008858, White: Lot No.: 20051615) and sealed at both ends. Three hollow fibers each containing a different cancer line are surgically implanted subcutaneously into both the left and right flanks of mice (total of six hollow fibers per mouse). Drug treatment is initiated on Day 0, three days post implantation of fibers. Each treatment group has 2 mice (4 hollow fibers per cancer type): Group 1: Vehicle control; Group 2: Gemcitabine control dosed intraperitoneally (i.p.) at 50 mg/kg once every three days; Group 3: Test compound dosed orally at 50 mg/kg once daily for five days. […] Mean % net cell growth is calculated using the formula [(mean OD(day5)−mean OD(day0))/(mean OD(day0))×100%]. Mean % inhibition of cell growth due to treatment is calculated relative to the mean % net cell growth of the Day 5 vehicle control for the particular cancer line.

[2] = system: MDA-MB-231; assay: Mouse xenograft model of TNBC (MDA-MB-231), tumor volume and histopathology; type: in vivo
Procedure: (§2) The in vivo efficacy of test compounds (e.g., 6-(2,4-dimethylthiazol-5-yl)-2-((1-(pyrido[2,3-d]pyrimidin-4-yl)piperidin-4-yl)methyl)pyridazin-3(2H)-one) on cancer cells is determined using a mouse xenograft model of TNBC (MDA-MB-231). 5×10^6 MDA-MB-231 cells (in 0.2 ml of FBS-free medium containing 50% Matrigel) are injected into the subcutaneous tissue of each mouse. Treatment is initiated (Day 0) when the average tumor volume reaches 100 mm^3. Tumor bearing mice are treated with vehicle and different doses of test compound (15 mg/kg, 35 mg/kg, 50 mg/kg, and 100 mg/kg) orally, once daily, for 3 weeks. Tumor volumes (mm^3) are measured post-implantation of cells once every 2-3 days throughout the study. At the end of the treatment period, a portion of the tumor tissue is excised and homogenized to analyze the levels of MYC biomarker using ELISA. Blood samples are collected from mice treated with test compound 8 hours after the final dose.

[3] = Body weight and clinical signs in the mouse hollow fiber study; type: in vivo; details: mice, 50 mg/kg orally once daily for 5 days
Procedure: as §1, with “line. […]” for “line.”

[4] = system: MYC; assay: MYC biomarker in tumor homogenate by ELISA, xenograft mice; type: in vivo, mouse; details: for MYC protein levels in tumor homogenate, Mean ± SD: ELISA, vehicle control 41.93 ± 5.38
Procedure: as §2

[5] = system: Mia-PaCa-2; assay: Mouse hollow fiber model, pancreatic cancer (Mia-PaCa-2); type: in vivo; details: pancreatic cancer Mia-PaCa-2 hollow fibers s.c. in mice; 50 mg/kg orally once daily for five days; modified MTT; vs Day 5 vehicle
Procedure: as §1

[6] = Body weight and clinical signs in the mouse xenograft study; type: in vivo; details: 15-100 mg/kg orally once daily for 3 weeks, throughout the study
Procedure: as §2

[7] = system: MDA-MB-231; assay: Mouse hollow fiber model, TNBC (MDA-MB-231); type: in vivo; details: TNBC MDA-MB-231 hollow fibers s.c. in mice; 50 mg/kg orally once daily for five days; modified MTT; vs Day 5 vehicle
Procedure: as §1

[8] = Plasma concentration of test compound in xenograft mice; type: in vivo, mouse; details: for concentration at 8 h: mouse, plasma, oral, tumor bearing mice, read-out: Test compound concentrations in plasma 8 h after last dose, Mean ± SD
Procedure: as §2

[9] = 15-100 mg/kg orally once daily for 3 weeks
[10] = 15 mg/kg orally once daily for 3 weeks
[11] = 35 mg/kg orally once daily for 3 weeks
[12] = 50 mg/kg orally once daily for 3 weeks
[13] = 100 mg/kg orally once daily for 3 weeks

Cc1nc(C)c(-c2ccc(=O)n(CC3CCN(c4ncnc5ncccc45)CC3)n2)s1 [test compound, 6-(2,4-dimethylthiazol-5-yl)-2-((1-(pyrido[2,3-d]pyrimidin-4-yl)piperidin-4-yl)methyl)pyridazin-3(2H)-one]
growth inhibition (mean % inhibition of cell growth) [1]: 28.1% | Tumor volume, Mean ([2]; 15 mg/kg orally once daily, Day 0): 93 mm^3 | Tumor volume, Mean ([2]; 15 mg/kg orally once daily, Day 2): 137 mm^3 | Tumor volume, Mean ([2]; 15 mg/kg orally once daily, Day 5): 212 mm^3 | Tumor volume, Mean ([2]; 15 mg/kg orally once daily, Day 8): 330 mm^3 | Tumor volume, Mean ([2]; 15 mg/kg orally once daily, Day 10): 435 mm^3 | Tumor volume, Mean ([2]; 15 mg/kg orally once daily, Day 12): 534 mm^3 | Tumor volume, Mean ([2]; 15 mg/kg orally once daily, Day 14): 749 mm^3 | Tumor volume, Mean ([2]; 15 mg/kg orally once daily, Day 16): 921 mm^3 | Tumor volume, Mean ([2]; 15 mg/kg orally once daily, Day 19): 1157 mm^3 | Tumor volume, Mean ([2]; 15 mg/kg orally once daily, Day 21): 1494 mm^3 | Tumor volume, Mean ([2]; 35 mg/kg orally once daily, Day 0): 92 mm^3 | Tumor volume, Mean ([2]; 35 mg/kg orally once daily, Day 2): 129 mm^3 | Tumor volume, Mean ([2]; 35 mg/kg orally once daily, Day 5): 191 mm^3 | Tumor volume, Mean ([2]; 35 mg/kg orally once daily, Day 8): 307 mm^3 | Tumor volume, Mean ([2]; 35 mg/kg orally once daily, Day 10): 390 mm^3 | Tumor volume, Mean ([2]; 35 mg/kg orally once daily, Day 12): 485 mm^3 | Tumor volume, Mean ([2]; 35 mg/kg orally once daily, Day 14): 739 mm^3 | Tumor volume, Mean ([2]; 35 mg/kg orally once daily, Day 16): 897 mm^3 | Tumor volume, Mean ([2]; 35 mg/kg orally once daily, Day 19): 1101 mm^3 | Tumor volume, Mean ([2]; 35 mg/kg orally once daily, Day 21): 1459 mm^3 | Tumor volume, Mean ([2]; 50 mg/kg orally once daily, Day 0): 94 mm^3 | Tumor volume, Mean ([2]; 50 mg/kg orally once daily, Day 2): 123 mm^3 | Tumor volume, Mean ([2]; 50 mg/kg orally once daily, Day 5): 191 mm^3 | Tumor volume, Mean ([2]; 50 mg/kg orally once daily, Day 8): 295 mm^3 | Tumor volume, Mean ([2]; 50 mg/kg orally once daily, Day 10): 368 mm^3 | Tumor volume, Mean ([2]; 50 mg/kg orally once daily, Day 12): 463 mm^3 | Tumor volume, Mean ([2]; 50 mg/kg orally once daily, Day 14): 716 mm^3 | Tumor volume, Mean ([2]; 50 mg/kg orally once daily, Day 16): 875 mm^3 | Tumor volume, Mean ([2]; 50 mg/kg orally once daily, Day 19): 1078 mm^3 | Tumor volume, Mean ([2]; 50 mg/kg orally once daily, Day 21): 1397 mm^3 | Tumor volume, Mean ([2]; 100 mg/kg orally once daily, Day 0): 88 mm^3 | Tumor volume, Mean ([2]; 100 mg/kg orally once daily, Day 2): 126 mm^3 | Tumor volume, Mean ([2]; 100 mg/kg orally once daily, Day 5): 186 mm^3 | Tumor volume, Mean ([2]; 100 mg/kg orally once daily, Day 8): 290 mm^3 | Tumor volume, Mean ([2]; 100 mg/kg orally once daily, Day 10): 363 mm^3 | Tumor volume, Mean ([2]; 100 mg/kg orally once daily, Day 12): 458 mm^3 | Tumor volume, Mean ([2]; 100 mg/kg orally once daily, Day 14): 652 mm^3 | Tumor volume, Mean ([2]; 100 mg/kg orally once daily, Day 16): 782 mm^3 | Tumor volume, Mean ([2]; 100 mg/kg orally once daily, Day 19): 933 mm^3 | Tumor volume, Mean ([2]; 100 mg/kg orally once daily, Day 21): 1158 mm^3 | Histopathology of tumors compared to the vehicle [2, 9]: dose-dependent decrease in tumor cells, increase in necrosis and decrease in blood vessel formation | mean tumor volumes compared to the vehicle control on day 21 [2, 9]: dose-dependent decreases | changes in body weight versus the vehicle-treated group [3]: no significant changes | MYC protein levels in tumor homogenate, Mean ± SD [4, 10]: 35.70 ± 2.45 ng/mg tumor homogenate | MYC protein levels in tumor homogenate, Mean ± SD [4, 11]: 29.55 ± 2.93 ng/mg tumor homogenate | MYC protein levels in tumor homogenate, Mean ± SD [4, 12]: 29.11 ± 4.66 ng/mg tumor homogenate | MYC protein levels in tumor homogenate, Mean ± SD [4, 13]: 23.53 ± 4.28 ng/mg tumor homogenate | MYC biomarker levels in the tumor, trend with dose [4, 9]: dose-dependent decreases | growth inhibition (mean % inhibition of cell growth) [5]: 63.0% | Body weight and clinical signs of animals [6]: apparently normal | growth inhibition (mean % inhibition of cell growth) [7]: 88.2% | concentrations of test compound in the plasma, trend with dose [8, 9]: dose-dependent increases | concentration at 8 h [8, 10]: 10.3 ± 1.7 ng/mL | concentration at 8 h [8, 11]: 42.6 ± 29.1 ng/mL | concentration at 8 h [8, 12]: 59.4 ± 21.9 ng/mL | concentration at 8 h [8, 13]: 230 ± 111 ng/mL
